Reference: patent US20260125382A1, “COMPOUNDS FOR INHIBITING OR DEGRADING CDK2 AND/OR CDK9 AND MEDICINAL USE THEREOF” (KOREA RESEARCH INSTITUTE OF CHEMICAL TECHNOLOGY, priority 2022, published 2026)

Key:
[1] = target: T1, CDK9 (Homo sapiens, UniProt P50750); assay: CDK protein degradation activity (Western blotting), CDK9; assay type: cell-based; conditions: MDA-MB-231 cells, 16 hours, Western blot
T1 construct: endogenous in cells; host or cells: MDA-MB-231
Method in brief: (§1)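 MDA-MB-231 cells were treated with compound at final concentrations of 100 nM, 1 μM and 10 μM, or DMSO vehicle, for 16 h. Lysates were resolved by SDS-PAGE and immunoblotted for CDK2, CDK9 and tubulin, with band intensities quantified densitometrically.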

[2] = target: T2, CDK2 (Homo sapiens, UniProt P24941); assay: CDK protein degradation activity (Western blotting), CDK2; assay type: cell-based; conditions: MDA-MB-231 cells, 16 hours, Western blot
T2 construct: endogenous in cells; host or cells: MDA-MB-231
Method in brief: as §1

T1 sequence (P50750 whole entry): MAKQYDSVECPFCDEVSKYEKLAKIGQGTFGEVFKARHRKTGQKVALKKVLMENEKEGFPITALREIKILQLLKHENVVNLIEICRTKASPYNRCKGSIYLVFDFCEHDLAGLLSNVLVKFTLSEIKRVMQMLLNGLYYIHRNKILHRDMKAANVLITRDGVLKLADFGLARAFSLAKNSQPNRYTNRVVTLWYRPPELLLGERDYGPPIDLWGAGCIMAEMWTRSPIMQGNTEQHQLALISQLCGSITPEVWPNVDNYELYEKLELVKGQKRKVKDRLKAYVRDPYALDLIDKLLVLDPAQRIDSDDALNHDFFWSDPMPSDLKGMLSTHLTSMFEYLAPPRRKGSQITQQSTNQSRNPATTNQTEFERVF

SMILES | Enzyme degradation CDK9 (% remaining) @ 0.1 μM [1] | Enzyme degradation CDK9 (% remaining) @ 1 μM [1] | Enzyme degradation CDK9 (% remaining) @ 10 μM [1] | Enzyme degradation CDK2 (% remaining) @ 0.1 μM [2] | Enzyme degradation CDK2 (% remaining) @ 1 μM [2] | Enzyme degradation CDK2 (% remaining) @ 10 μM [2]
O=C1CC[C@H](N2C(=O)c3ccc(N4CCN(CC5CCN(c6ccc(Nc7ncnc8c7ncn8[C@H]7C[C@@H](NC(=O)c8c(Cl)cccc8Cl)C7)cc6)CC5)CC4)cc3C2=O)C(=O)N1 [Compound 300, 2,6-dichloro-N-((1s,3s)-3-(6-((4-(4-((4-(2-(2,6-dioxopiperidin-3-yl)-1,3-dioxoisoindolin-5-yl)piperazin-1-yl)methyl)piperidin-1-yl)phenyl)amino)-9H-purin-9-yl)cyclobutyl)benzamide] | 10% | 0% | 0% | 10/10/10% | 10/10/10% | 10/10/10%
Cc1cccc(C(=O)NC2CC(n3cnc4c(NCCC5CCN(CC6CCN(c7ccc8nnn([C@H]9CCC(=O)NC9=O)c(=O)c8c7)CC6)CC5)ncnc43)C2)n1 (stereo partly drawn) [Compound 304, N-((1s,3s)-3-(6-((2-(1-((1-(3-(2,6-dioxopiperidin-3-yl)-4-oxo-3,4-dihydrobenzo[d][1,2,3]triazin-6-yl)piperidin-4-yl)methyl)piperidin-4-yl)ethyl)amino)-9H-purin-9-yl)cyclobutyl)-6-methylpicolinamide] | 20% | 0% | 0% | 20% | 30% | 50%
Cc1cccc(C(=O)NC2CC(n3cnc4c(NCCC5CCN(CC6CCN(C(=O)C7CN(c8ccc9c(c8)C(=O)N([C@H]8CCC(=O)NC8=O)C9=O)C7)CC6)CC5)ncnc43)C2)n1 (stereo partly drawn) [Compound 309, N-((1s,3s)-3-(6-((2-(1-((1-(1-(2-(2,6-dioxopiperidin-3-yl)-1,3-dioxoisoindolin-5-yl)azetidin-3-carbonyl)piperidin-4-yl)methyl)piperidin-4-yl)ethyl)amino)-9H-purin-9-yl)cyclobutyl)-6-methylpicolinamide] | 0/0/0% | 0/0/0% | 0/0/0% | 90% | 80% | 100%
O=C1CC[C@H](N2C(=O)c3ccc(NCC(=O)N4CCN(CC5CCN(c6ccc(Nc7ncnc8c7ncn8[C@H]7C[C@@H](NC(=O)c8c(Cl)cccc8Cl)C7)cc6)CC5)CC4)cc3C2=O)C(=O)N1 [Compound 312, 2,6-dichloro-N-((1s,3s)-3-(6-((4-(4-((4-((2-(2,6-dioxopiperidin-3-yl)-1,3-dioxoisoindolin-5-yl)glycyl)piperazin-1-yl)methyl)piperidin-1-yl)phenyl)amino)-9H-purin-9-yl)cyclobutyl)benzamide] | 0/0/0% | 0/0/0% | 0/0/0% | 10/10/10% | 10/10/10% | 10/10/10%
O=C1CC[C@H](n2nnc3ccc(N4CCC5(CC4)CC(N4CCN(c6ccc(Nc7ncnc8c7ncn8[C@H]7C[C@@H](NC(=O)Cc8ccccc8)C7)cc6)CC4)C5)cc3c2=O)C(=O)N1 [Compound 314, N-((1s,3s)-3-(6-((4-(4-(7-(3-(2,6-dioxopiperidin-3-yl)-4-oxo-3,4-dihydrobenzo[d][1,2,3]triazin-6-yl)-7-azaspiro[3.5]nonan-2-yl)piperazin-1-yl)phenyl)amino)-9H-purin-9-yl)cyclobutyl)-2-phenylacetamide] | 10% | 0% | 0% | 10/10/10% | 10/10/10% | 10/10/10%

Second part, the compound after the results:

Enzyme degradation CDK9 (% remaining) @ 0.1 μM [1] | Enzyme degradation CDK9 (% remaining) @ 1 μM [1] | Enzyme degradation CDK9 (% remaining) @ 10 μM [1] | Enzyme degradation CDK2 (% remaining) @ 0.1 μM [2] | Enzyme degradation CDK2 (% remaining) @ 1 μM [2] | Enzyme degradation CDK2 (% remaining) @ 10 μM [2] | SMILES
10% | 0% | 0% | 10/10/10% | 10/10/10% | 10/10/10% | O=C1CC[C@H](N2C(=O)c3ccc(N4CCC5(CC4)CC(N4CCC(c6ccc(Nc7ncnc8c7ncn8[C@H]7C[C@@H](NC(=O)Cc8ccccc8)C7)cc6)CC4)C5)cc3C2=O)C(=O)N1 [Compound 298, N-((1s,3s)-3-(6-((4-(1-(7-(2-(2,6-dioxopiperidin-3-yl)-1,3-dioxoisoindolin-5-yl)-7-azaspiro[3.5]nonan-2-yl)piperidin-4-yl)phenyl)amino)-9H-purin-9-yl)cyclobutyl)-2-phenylacetamide]
0/0/0% | 0/0/0% | 0/0/0% | 30/30/30% | 30/30/30% | 30/30/30% | O=C1CC[C@H](N2C(=O)c3cc(F)c(N4CCC(CN5CCN(c6ccc(Nc7ncnc8c7ncn8C7CC(NC(=O)c8c(Cl)cccc8Cl)C7)cc6)CC5)CC4)cc3C2=O)C(=O)N1 (stereo partly drawn) [Compound 299, 2,6-dichloro-N-((1s,3s)-3-(6-((4-(4-((1-(2-(2,6-dioxopiperidin-3-yl)-6-fluoro-1,3-dioxoisoindolin-5-yl)piperidin-4-yl)methyl)piperazin-1-yl)phenyl)amino)-9H-purin-9-yl)cyclobutyl)benzamide]
70% | 0% | 0% | 30% | 20% | 10% | O=C1CC[C@H](N2C(=O)c3cc(F)c(N4CCN(CC5CCN(c6ccc(Nc7ncnc8c7ncn8C7CC(NC(=O)c8c(Cl)cccc8Cl)C7)cc6)CC5)CC4)cc3C2=O)C(=O)N1 (stereo partly drawn) [Compound 301, 2,6-dichloro-N-((1s,3s)-3-(6-((4-(4-((4-(2-(2,6-dioxopiperidin-3-yl)-6-fluoro-1,3-dioxoisoindolin-5-yl)piperazin-1-yl)methyl)piperidin-1-yl)phenyl)amino)-9H-purin-9-yl)cyclobutyl)benzamide]
30% | 0% | 10% | 100/100/100% | 100/100/100% | 100/100/100% | Cc1cccc(C(=O)NC2CC(n3cnc4c(NCCC5CCN(CC6CCN(c7cccc8c7C(=O)N([C@H]7CCC(=O)NC7=O)C8=O)CC6)CC5)ncnc43)C2)n1 (stereo partly drawn) [Compound 306, N-((1s,3s)-3-(6-((2-(1-((1-(2-(2,6-dioxopiperidin-3-yl)-1,3-dioxoisoindolin-4-yl)piperidin-4-yl)methyl)piperidin-4-yl)ethyl)amino)-9H-purin-9-yl)cyclobutyl)-6-methylpicolinamide]
0/0/0% | 0/0/0% | 0/0/0% | 0/0/0% | 0/0/0% | 0/0/0% | O=C1CC[C@H](n2nnc3ccc(N4CCC(CN5CCN(c6ccc(Nc7ncnc8c7ncn8C7CC(NC(=O)Cc8ccccc8)C7)cc6)CC5)CC4)cc3c2=O)C(=O)N1 (stereo partly drawn) [Compound 307, N-((1s,3s)-3-(6-((4-(4-((1-(3-(2,6-dioxopiperidin-3-yl)-4-oxo-3,4-dihydrobenzo[d][1,2,3]triazin-6-yl)piperidin-4-yl)methyl)piperazin-1-yl)phenyl)amino)-9H-purin-9-yl)cyclobutyl)-2-phenylacetamide]
20% | 0% | 20% | 40% | 30% | 30% | Cc1cccc(C(=O)NC2CC(n3cnc4c(NCCC5CCN(CC6CCN(c7ccc8c(c7)C(=O)N([C@H]7CCC(=O)NC7=O)C8=O)CC6)CC5)ncnc43)C2)n1 (stereo partly drawn) [Compound 308, N-((1s,3s)-3-(6-((2-(1-((1-(2-(2,6-dioxopiperidin-3-yl)-1,3-dioxoisoindolin-5-yl)piperidin-4-yl)methyl)piperidin-4-yl)ethyl)amino)-9H-purin-9-yl)cyclobutyl)-6-methylpicolinamide]
10% | 0% | 0% | 10% | 20% | 20% | O=C1CC[C@H](N2C(=O)c3cccc(NCC(=O)N4CCN(CC5CCN(c6ccc(Nc7ncnc8c7ncn8[C@H]7C[C@@H](NC(=O)c8c(Cl)cccc8Cl)C7)cc6)CC5)CC4)c3C2=O)C(=O)N1 [Compound 311, 2,6-dichloro-N-((1s,3s)-3-(6-((4-(4-((4-((2-(2,6-dioxopiperidin-3-yl)-1,3-dioxoisoindolin-4-yl)glycyl)piperazin-1-yl)methyl)piperidin-1-yl)phenyl)amino)-9H-purin-9-yl)cyclobutyl)benzamide]
0/0/0% | 0/0/0% | 0/0/0% | 10% | 20% | 30% | O=C1CC[C@H](N2C(=O)c3ccc(N4CCC5(CC4)CC(N4CCN(c6ccc(Nc7ncnc8c7ncn8C7CC(NC(=O)c8c(Cl)cccc8Cl)C7)cc6)CC4)C5)cc3C2=O)C(=O)N1 (stereo partly drawn) [Compound 315, 2,6-dichloro-N-((1s,3s)-3-(6-((4-(4-(7-(2-(2,6-dioxopiperidin-3-yl)-1,3-dioxoisoindolin-5-yl)-7-azaspiro[3.5]nonan-2-yl)piperazin-1-yl)phenyl)amino)-9H-purin-9-yl)cyclobutyl)benzamide]
